Patent US20110086759A1, “CHEMICAL COMPOUNDS” (SYNGENTA CROP PROTECTION, INC., priority 2007, published 2011)

Tests used:
Type in all cases: in vivo
[1] = tested on: Echinochloa crus-galli (ECHCG); assay: Pre-emergence biological efficacy, glasshouse pot test; conditions: 312 h, pre-emergence, 1,000 g/ha, evaluated after 13 days (100=total damage; 0=no damage), read-out: Percentage damage ECHCG
Procedure, shortened: (§1)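 Seeds sown in standard soil in pots, held one day in glasshouse (24/16 °C day/night, 14 h light, 65% humidity), then sprayed with aqueous solution from acetone/water (50:50) formulation with 0.5% Tween 20 at 1000 or 250 g/ha. Damage scored after 13 days (0 = none, 100 = total).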

Solanum nigrum (SOLNI) [2] = assay: as above; conditions: 312 h, pre-emergence, 1,000 g/ha, evaluated after 13 days (100=total damage; 0=no damage), read-out: Percentage damage SOLNI
Procedure, shortened: as §1

[3] = tested on: Ipomea hederaceae (IPOHE); assay: as above; conditions: Ipomoea hederacea, 312 h; pre-emergence, 1,000 g/ha, evaluated after 13 days (100=total damage; 0=no damage); read-out: Percentage damage IPOHE
Procedure, shortened: as §1

[4] = tested on: Alopecurus myosuroides (ALOMY); assay: as above; conditions: 312 h, pre-emergence, 1,000 g/ha, evaluated after 13 days (100=total damage; 0=no damage), read-out: Percentage damage ALOMY
Procedure, shortened: as §1

[5] = tested on: Amaranthus retoflexus (AMARE); assay: as above; conditions: Amaranthus retroflexus, 312 h; pre-emergence, 1,000 g/ha, evaluated after 13 days (100=total damage; 0=no damage); read-out: Percentage damage AMARE
Procedure, shortened: as §1

Setaria faberi (SETFA) [6] = assay: as above; conditions: 312 h, pre-emergence, 1,000 g/ha, evaluated after 13 days (100=total damage; 0=no damage), read-out: Percentage damage SETFA
Procedure, shortened: as §1

[7] = tested on: Echinochloa crus-galli (ECHCG); assay: Post-emergence biological efficacy, glasshouse pot test; conditions: 312 h, post-emergence, 1,000 g/ha, evaluated after 13 days (100=total damage; 0=no damage), read-out: Percentage damage caused to weed species, ECHCG
Procedure, shortened: (§2)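 Plants were sown in standard soil and grown 8 days in a glasshouse (24/16° C. day/night, 14 hours light, 65% humidity), then sprayed post-emergence at 1000 or 250 g/ha from acetone/water (50:50) with 0.5% Tween 20. Damage was scored visually after 13 days (0 = none, 100 = total).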

Solanum nigrum (SOLNI) [8] = assay: as above; conditions: 312 h, post-emergence, 1,000 g/ha, evaluated after 13 days (100=total damage; 0=no damage), read-out: Percentage damage caused to weed species, SOLNI
Procedure, shortened: as §2

[9] = tested on: Ipomea hederaceae (IPOHE); assay: as above; conditions: Ipomoea hederacea, 312 h; post-emergence, 1,000 g/ha, evaluated after 13 days (100=total damage; 0=no damage); read-out: Percentage damage caused to weed species, IPOHE
Procedure, shortened: as §2

[10] = tested on: Alopecurus myosuroides (ALOMY); assay: as above; conditions: 312 h, post-emergence, 1,000 g/ha, evaluated after 13 days (100=total damage; 0=no damage), read-out: Percentage damage caused to weed species, ALOMY
Procedure, shortened: as §2

[11] = tested on: Amaranthus retoflexus (AMARE); assay: as above; conditions: Amaranthus retroflexus, 312 h; post-emergence, 1,000 g/ha, evaluated after 13 days (100=total damage; 0=no damage); read-out: Percentage damage caused to weed species, AMARE
Procedure, shortened: as §2

Setaria faberi (SETFA) [12] = assay: as above; conditions: 312 h, post-emergence, 1,000 g/ha, evaluated after 13 days (100=total damage; 0=no damage), read-out: Percentage damage caused to weed species, SETFA
Procedure, shortened: as §2

Row | Structure (SMILES) | pest or weed control at 1000 g/ha [1] [%] | pest or weed control at 1000 g/ha (Solanum nigrum (SOLNI) [2]) [%] | pest or weed control at 1000 g/ha [3] [%] | pest or weed control at 1000 g/ha [4] [%] | pest or weed control at 1000 g/ha [5] [%] | pest or weed control at 1000 g/ha (Setaria faberi (SETFA) [6]) [%] | pest or weed control at 1000 g/ha [7] [%] | pest or weed control at 1000 g/ha (Solanum nigrum (SOLNI) [8]) [%] | pest or weed control at 1000 g/ha [9] [%] | pest or weed control at 1000 g/ha [10] [%] | pest or weed control at 1000 g/ha [11] [%] | pest or weed control at 1000 g/ha (Setaria faberi (SETFA) [12]) [%]
1 | COC(=O)c1nc(C2CC2)nc(NCC2CCC(C#N)CC2)c1Cl (stereo not drawn) [Compound 4-51, 5-Chloro-4-[(4-cyanocyclohexyl)methylamino]-2-cyclopropyl-6-methoxycarbonyl-pyrimidine] | 0 | 10 | 50 | 0 | 30 | 0 | 20 | 50 | 60 | 10 | 50 | 50
2 | COC(=O)c1nc(C2CC2)nc(NCC2CCCCCCC2)c1Cl [Compound 4-52, 5-Chloro-4-cyclooctylmethyl-amino-2-cyclo-propyl-6-methoxy-carbonylpyrimidine] | 0 | 30 | 0 | 0 | 40 | 0 | 20 | 60 | 50 | 0 | 30 | 20
3 | COC(=O)c1nc(C2CC2)nc(NCC2CCCO2)c1Cl (stereo not drawn) [Compound 4-53, 5-Chloro-2-cyclopropyl-6-methoxy carbonyl-4-(tetrahydrofuran-2-ylmethylamino)-pyrimidine] | 0 | 40 | 60 | 10 | 60 | 0 | 30 | 90 | 100 | 20 | 100 | 40
4 | COC(=O)c1nc(C2CC2)nc(NCC2(OC)C=CC(OC)O2)c1Cl (stereo not drawn) [Compound 4-55, 5-Chloro-2-cyclopropyl-4-[(2,5-dihydro-2,5-dimethoxy-furan-2-yl)methylamino]-6-methoxycarbonyl-pyrimidine] | 0 | 10 | 60 | 0 | 100 | 0 | 0 | 80 | 50 | 10 | 100 | 30
5 | COC(=O)c1nc(C2CC2)nc(NCC2CCC=CO2)c1Cl (stereo not drawn) [Compound 4-56, 5-Chloro-2-cyclopropyl-4-[(3,4-dihydro-2H-pyran-2-yl)methylamino]-6-methoxy-carbonylpyrimidine] | 30 | 90 | 100 | 40 | 100 | 20 | 30 | 80 | 80 | 20 | 100 | 40
6 | COC(=O)c1nc(C2CC2)nc(NCC2CCN(OC(=O)C(C)(C)C)CC2)c1Cl [Compound 4-58] | 0 | 30 | 20 | 0 | 80 | 0 | 40 | 70 | 50 | 0 | 70 | 50
7 | COC(=O)c1nc(C2CC2)nc(NCC2(O)CCc3ccc(OC)cc32)c1Cl (stereo not drawn) [Compound 4-59, 5-Chloro-2-cyclopropyl-4-[(1-hydroxy-6-methoxyindan-1-yl)methylamino]-6-methoxycarbonyl-pyrimidine] | 40 | 80 | 80 | 20 | 80 | 10 | 60 | 100 | 100 | 50 | 100 | 80
8 | COC(=O)c1nc(C2CC2)nc(NCc2ccccc2)c1Cl [Compound 4-60, 5-chloro-2-cyclopropyl-6-methoxycarbonyl-4-phenylmethylaminopyrimidine] | 0 | 50 | 60 | 0 | 60 | 30 | 90 | 100 | 100 | 20 | 100 | 90
9 | COC(=O)c1nc(C2CC2)nc(NCc2cccc(Cl)c2)c1Cl [Compound 4-62] | 20 | 90 | 60 | 10 | 100 | 10 | 70 | 100 | 100 | 30 | 100 | 90
10 | COC(=O)c1nc(C2CC2)nc(NCc2ccc(Cl)cc2)c1Cl [Compound 4-63, 5-Chloro-4-(4-chlorophenylmethyl-amino)-2-cyclopropyl-6-methoxycarbonyl-pyrimidine] | 20 | 60 | 60 | 20 | 60 | 20 | 50 | 90 | 80 | 40 | 100 | 80
11 | COC(=O)c1nc(C2CC2)nc(NCc2cccc(F)c2)c1Cl [Compound 4-65, 5-Chloro-2-cyclopropyl-4-(3-fluorophenylmethyl-amino)-6-methoxycarbonyl-pyrimidine] | 60 | 80 | 70 | 20 | 80 | 40 | 80 | 100 | 100 | 20 | 100 | 100
12 | COC(=O)c1nc(C2CC2)nc(NCc2ccc(F)cc2)c1Cl [Compound 4-66, 5-Chloro-2-cyclopropyl-4-(4-fluorophenyl-methylamino)-6-methoxy-carbonylpyrimidine] | 50 | 90 | 90 | 40 | 90 | 80 | 70 | 100 | 100 | 20 | 100 | 90
